From patent publication US5552419A, “Arylsulfonamido-substituted hydroxamic acids” (Ciba-Geigy Corporation, priority 1993, dated 1996) come the findings set out here.

Experiment [1] concerns the target recombinant human stromelysin (Homo sapiens, UniProt P08254). Description: release of KS and S-GAG fragments into the joint in rabbits after intra-articular injection of recombinant human stromelysin. The conditions noted are these: 30 mg/kg, 4 hours prior to injection of human recombinant stromelysin. Type of experiment: in vivo, rabbit. As for the experimental part: The effect of compounds of the invention in-vivo can be determined in rabbits. […] Two hours later the rabbits are sacrificed, synovial lavage is collected, and keratan sulfate (KS) and sulfated glycosaminoglycan (S-GAG) fragments released into the joint are quantitated. Keratan sulfate is measured by an inhibition ELISA using the method of Thonar (Thonar, E. J.-M. A., Lenz, M. E., Klinsworth, G. K., Caterson, B., Pachman, L. M., Clickman, P.., Katz, R., Huff, J., Keuttner, K. E. Quantitation of keratan sulfate in blood as a marker of cartilage catabolism, Arthr. Rheum. 28, 1367-1376 (1985)). Sulfated glycosaminoglycans are measured by first digesting the synovial lavage with streptomyces hyaluronidase and then measuring DMB dye binding using the method of Goldberg (Goldberg, R. L. and Kolibas, L. An improved method for determining proteoglycan synthesized by chondrocytes in culture. Connect. Tiss. Res. 24, 265-275 (1990)). For an i.v. study, a compound is solubilized in 1 ml of PEG-400, and for a p.o. study, a compound is administered in 5 ml of fortified […] per kilogram of body weight.

The next experiment deals with cartilage degradation. The experiment in a line: protection against cartilage degradation in a surgical model of osteoarthritis. The experiment is classed as in vivo. The source says: The effect in protecting against cartilage degradation in arthritic disorders can be determined e.g. in a surgical model of osteoarthritis described in Arthritis and Rheumatism, Vol. 26, 875-886 (1983).

recombinant human stromelysin, sequence (P08254 100-477): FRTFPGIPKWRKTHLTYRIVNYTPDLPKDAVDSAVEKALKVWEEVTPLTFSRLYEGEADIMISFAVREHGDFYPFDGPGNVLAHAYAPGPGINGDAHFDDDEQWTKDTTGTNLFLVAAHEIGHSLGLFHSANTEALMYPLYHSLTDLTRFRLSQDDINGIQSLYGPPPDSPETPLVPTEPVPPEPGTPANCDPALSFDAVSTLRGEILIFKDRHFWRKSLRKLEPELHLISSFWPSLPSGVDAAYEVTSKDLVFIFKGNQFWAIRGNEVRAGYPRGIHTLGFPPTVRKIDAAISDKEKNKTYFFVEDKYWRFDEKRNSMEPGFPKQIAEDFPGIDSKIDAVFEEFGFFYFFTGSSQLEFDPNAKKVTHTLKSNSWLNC

`COc1ccc(S(=O)(=O)N(Cc2cccnc2)[C@@H](C(=O)NO)C(C)C)cc1.Cl` [N-hydroxy-2(R)-[[4-methoxybenzenesulfonyl](3-picolyl)amino]-3-methylbutanamide hydrochloride]: in experiment [1] (KS by inhibition ELISA), the “inhibition in the release of KS fragments into the joint” value came to 72%. Also, the “inhibition in the release of S-GAG fragments into the joint” value in experiment [1] (S-GAG by DMB dye binding) stood at 70%. In the experiment with cartilage degradation, the “effect in protecting against cartilage degradation in arthritic disorders” value is reported as “protects against cartilage degradation”.
